Where a name gives a salt, the structure may show the parent alone.
What was measured:
CO2 -treated mice = assay: Effect of improving the memories of amnesia models: CO2-induced amnesia, latency; type: in vivo, mice of ddK strain; conditions: 100 mg/kg oral
Text: (§1) The mice were allowed to take feeds and water freely. The device comprised a dark chamber (a rectangular box 20 cm high, with a floor grid, 12 cm×15 cm) and a bright chamber (a box with an open top and a floor grid, 15 cm×15 cm, surrounded by rectangular walls, 15 cm^w ×20 cm^H, on four sides). The two chambers were in contact with each other sharing a common surface of 15 cm×20 cm which is provided with an opening through which the mouse could move freely. A stainless steel wire, which was connected to an electric impulse apparatus (manufactured by Nippon Medical and Chemical Instruments Co., Ltd.), was placed on the floor grid in the dark chamber. The bright chamber was illuminated with a 60 W electric bulb from a height of about 45 cm above the floor grid. Each mouse was placed on the floor grid in the bright chamber. Immediately after the mouse (four limbs) entered the dark chamber, it was loaded with an electroshock cf DC 50 V through the floor grid for about three seconds. Immediately after electroshock loading, the mouse was taken out from the dark chamber. […] Immediately after the acquisition trials, each mouse was left in a container filled with carbon dioxide for a period of 8 seconds to induce amnesia. A 5% aqueous suspension of each test compound in gum arabic solution was administered orally to mice immediately after carbon dioxide loading or to mice immediately after completion of the acquisition trials following scopolamine administration.

Scopolamine-treated mice = assay: Effect of improving the memories of amnesia models: scopolamine-induced amnesia, latency; type: in vivo, mice of ddK strain; conditions: 100 mg/kg oral; for improvement of shortening of latency induced by scopolamine (in words): compared with calcium hopantenate and pramiracetam
Text: as §1, with “Scopolamine, […],” for “Immediately after the acquisition trials, each mouse”, “administered intraperitoneally to mice” for “left in a container filled with carbon dioxide for a period of 8 seconds”, “amnesia 20 minutes before initiation of acquisition trials.” for “amnesia.”

mice of ddK strain = assay: KCN anoxia test; type: in vivo; conditions: for Number of survivals/Number of mice used / Survival rate (%): KCN 2.65 mg/kg i.v. after 30 minutes, 180 seconds; for Number of survivals/Number of mice used: control 0/8; for Survival rate (%): control 0; for anti-anoxic action (in words): KCN anoxia test
[1] = test system: sensitized bronchial muscle; assay: Antiallergic action: inhibition of egg albumin-induced contraction of sensitized guinea pig bronchial muscle; type: tissue-based, guinea pigs of Hartley strain; conditions: Cavia porcellus; for inhibition at 100 µM: 10^-4 M; for inhibition at 10 µM: 10^-5 M; for inhibition at 1 µM: 10^-6 M; for inhibition at 0.1 µM: 10^-7 M; for inhibition at 0.01 µM: 10^-8 M
Experimental: Male guinea pigs of Hartley strain (body weight: about 250 g) were intraperitoneally or intramuscularly dosed with egg albumin (dose 100 mg/kg) and the same procedure was repeated after 3 days. After 3 to 4 weeks, the guinea pi-as were bled to death and the sensitized bronchial muscle was excised and cut into 1.5 mm thick rings. Three rings were joined to prepare a specimen. The specimen was suspended in a tissue bath and a load of 1 g was applied. […] After stabilization of the specimen (after about 1 hour), histamine hydrochloride was added to the bath at a final concentration of 10^-5 M. The contraction curve was recorded. After the contraction had been stabilized, the specimen was washed with 3 portions of Ringer's solution at 10-minute intervals to stabilize the contraction (about 1 hour was required). Then, the test compound was added to the tissue bath and, after an interval of 10 minutes, 5 mg/ml of egg albumin was added. The contraction amplitude of the specimen was measured and the percent inhibition was calculated according to the following formula. [formula] A: Contraction amplitude of control group when egg albumin is added A': Contraction amplitude of dosage group when egg albumin is added
H: Contraction amplitude of control group when histamine hydrochloride is added
H': Contraction amplitude of dosage group when histamine hydrochloride is added

Acute toxicity (LD50) = conditions: mouse, in vivo; male ddK mice, 20-23 g, 10 animals per group, oral
Text: Toxicity studies also made it clear that the terpene amino alcohols according to the present invention are of low toxicity.

[2] = cited from earlier work; for side effects: prior art
[3] = test system: cerebral glucose uptake and oxidation of succinic acid in mitochondria; conditions: cited from earlier work
[4] = CO2-treated control 106.5 ± 24.9, normal mice 394.2 ± 84.0
[5] = scopolamine-treated control 83.5 ± 21.5, normal mice 394.2 ± 84.0
[6] = 100 mg/kg i.p., *P < 0.05, **P < 0.01
[7] = CO2-treated control 37.6 ± 19.6
[8] = scopolamine-treated control 54.6 ± 14.5

Compound: CC(C)(CO)[C@@H](O)C(=O)NCCCC(=O)O [Calcium hopantenate, calcium hopantenate, reference compound]
- memory activating action, CO2-induced amnesia (in words) (CO2 -treated mice): failed to show a significant memory activating action
- Latency, Mean ± S.E. (CO2 -treated mice; [4]): 115.5 ± 40.6 s
- Latency, Mean ± S.E. (Scopolamine-treated mice; [5]): 80.5 ± 17.2 s

Compound: CC(C)CCCC(C)CCCC(C)(O)C(O)CN(C)C(=O)c1cccnc1 (centres unmarked) [Compound (15), N-methyl-N-(3,7,11-trimethyl-2,3-hydroxydodecyl)nicotinamide]
- Number of survivals/Number of mice used (mice of ddK strain; 100 mg/kg i.p.): 7/9
- Survival rate (%) (mice of ddK strain; [6]): 77.8%
- anti-anoxic action (in words) (mice of ddK strain): significantly high anti-anoxic action
- memory activating action, CO2-induced amnesia (in words) (CO2 -treated mice): showed a tendency to activate memory
- Latency, Mean ± S.E. (CO2 -treated mice; [7]): 163.9 ± 49.1 s
- Latency, Mean ± S.E. (Scopolamine-treated mice; [8]): 65.2 ± 20.2 s
- inhibition at 100 µM [1]: 72.5%
- inhibition at 10 µM [1]: 67%
- inhibition at 1 µM [1]: 93%

Compound: CC(C)CCCC(C)CCCC(C)CCCC(C)(O)C(O)CN(C)C (centres unmarked) [Compound (32)]
- LD50 (Acute toxicity (LD50)): 3880 mg/kg
- inhibition at 10 µM [1]: 40%
- inhibition at 1 µM [1]: 61.1%
- inhibition at 0.1 µM [1]: 25%
- inhibition at 0.01 µM [1]: 10%

Compound: CC(C)CCCC(C)CCCC(C)CCCC(C)(O)C(O)CN(C)CCO (centres unmarked) [Compound (35)]
- Number of survivals/Number of mice used (mice of ddK strain; 100 mg/kg i.p.): 8/9
- Survival rate (%) (mice of ddK strain; [6]): 88.9%
- anti-anoxic action (in words) (mice of ddK strain): significantly high anti-anoxic action
- memory activating action, CO2-induced amnesia (in words) (CO2 -treated mice): showed a tendency to activate memory
- Latency, Mean ± S.E. (CO2 -treated mice; CO2-treated control 138.2 ± 43.6, normal mice 382.4 ± 83.6): 258.4 ± 94.5 s
- improvement of shortening of latency induced by scopolamine (in words) (Scopolamine-treated mice): significantly improved the shortening of latency induced by scopolamine
- Latency, Mean ± S.E. (Scopolamine-treated mice; scopolamine-treated control 169.0 ± 53.0, normal mice 382.4 ± 83.6): 320.2 ± 66.2 s
- inhibition at 10 µM [1]: 27.1%
- inhibition at 1 µM [1]: 85.5%
- inhibition at 0.1 µM [1]: 35%
- inhibition at 0.01 µM [1]: 22%

Compound: CC(C)CCCC(C)CCCC(C)CCCC(C)(O)C(O)CN(C)CCOC(=O)c1cccnc1 (centres unmarked) [Compound (36), 2-[N-(2,3-dihydroxy-3,7,11,15-tetramethylhexadecyl)-N-methylamino]ethyl nicotinate]
- memory activating action, CO2-induced amnesia (in words) (CO2 -treated mice): very significantly improved the shortening of latency induced by carbon dioxide
- Latency, Mean ± S.E. (CO2 -treated mice; [7]): 216.0 ± 69.0 s
- Latency, Mean ± S.E. (CO2 -treated mice; CO2-treated control 139.4 ± 27.5, normal mice 375.7 ± 74.9, *P < 0.05): 336.6 ± 77.8 s
- improvement of shortening of latency induced by scopolamine (in words) (Scopolamine-treated mice): significantly improved the shortening of latency induced by scopolamine
- Latency, Mean ± S.E. (Scopolamine-treated mice; [8]): 78.5 ± 26.9 s
- Latency, Mean ± S.E. (Scopolamine-treated mice; scopolamine-treated control 166.7 ± 36.7, normal mice 375.7 ± 74.9, *P < 0.05): 336.2 ± 55.4 s
- inhibition at 10 µM [1]: 45%
- inhibition at 1 µM [1]: 20%
- inhibition at 0.1 µM [1]: 8%

Compound: O=C(O)c1cc(=O)c2c(OCC(O)COc3cccc4oc(C(=O)O)cc(=O)c34)cccc2o1 [Disodium cromoglicate, disodium cromoglicate, reference compound]
- antiallergic effect (in words) ([2]; administered by the oral route): does not produce an antiallergic effect
- inhibition at 100 µM [1]: 32.1%
- inhibition at 10 µM [1]: 21%
- inhibition at 1 µM [1]: 7.8%
- inhibition at 0.1 µM [1]: 0%
- inhibition at 0.01 µM [1]: 0%

Compound: CC(C)CCCC(C)NC(C)C (centres unmarked) [Iproheptine hydrochloride, iproheptine hydrochloride]
- side effects [2]: drowsiness and nausea

Compound: CN1CCC(=C2c3ccccc3CC(=O)c3sccc32)CC1 [Ketotifen, ketotifen]
- time until antiallergic effect manifests itself ([2]; delayed effect type): 4-6 weeks
- side effects [2]: drowsiness

Compound: CC(C)N(CCNC(=O)CN1CCCC1=O)C(C)C [Pramiracetam, pramiracetam, reference compound]
- memory activating action, CO2-induced amnesia (in words) (CO2 -treated mice): failed to show a significant memory activating action
- Latency, Mean ± S.E. (CO2 -treated mice; [4]): 175.8 ± 42.9 s
- Latency, Mean ± S.E. (Scopolamine-treated mice; [5]): 98.1 ± 24.9 s

Compound: COc1ccc(/C=C/C(=O)Nc2ccccc2C(=O)O)cc1OC [Tranilast, tranilast, reference compound]
- side effects [2]: cystitis-like symptoms such as hematuria, pyuria and dysuria
- inhibition at 100 µM [1]: 32.1%
- inhibition at 10 µM [1]: 54.8%
- inhibition at 1 µM [1]: 21%
- inhibition at 0.1 µM [1]: 0%
- inhibition at 0.01 µM [1]: 0%

Compound: dihydroergotoxine mesilate [reference compound]
- Survival rate (%) (mice of ddK strain; 3 mg/kg i.p.): 10.0%
- Number of survivals/Number of mice used (mice of ddK strain; 3 mg/kg i.p.): 1/10
- anti-anoxic action (in words) (mice of ddK strain): not sufficiently remarkable
- reported cerebral actions (in words) [3]: promotes cerebral glucose uptake and oxidation of succinic acid in mitochondria and increases the cerebral blood flow

Reference: US5284850A, “Terpene amino alcohols and medicinal uses thereof” (Kuraray Co., Ltd., priority 1985, dated 1994)
